Counter-ions that a name gives are not always drawn.
Assay: Drug release pattern analysis (dialysis bag, phosphate-buffered saline)
Assay type: physicochemical
Conditions: within 24 h; body temperature (37° C.); PBS pH 7.4; FIG. 7
Method: The core/shell nanoparticle composite prepared in Example 1-1 was sampled, placed in a dialysis bag (molecular weight filtration limit: 100,000), and impregnated with 30 ml of phosphate-buffered saline (PBS, pH 7.4). The amount of the sampled nanoparticle composite was determined such that 10 mg of the doxorubicin-HCl was present in the sample. The phosphate-buffered saline was stirred at 100 rpm while maintaining the temperature at 37.5° C. After the lapse of a predetermined time, 5 ml of the phosphate-buffered saline was sampled. The amount of the drug released was measured by […]. After sampling, the remaining phosphate-buffered saline was completely removed and replaced with a fresh one. The amount of the doxorubicin-HCl released was measured using a UV-Vis spectrometer (G1103A, Agilent, USA).
For comparison, each of doxorubicin-HCl (10 mg) and the liposome-based core/shell nanoparticle composite prepared in Comparative Example 1 (containing 10 mg of doxorubicin-HCl) was added to 10 mL of distilled water. The release behavior of the drug in the aqueous solution was measured by the same procedure as described above.

drug released into phosphate-buffered saline: > 95%
Structure (SMILES): COc1cccc2c1C(=O)c1c(O)c3c(c(O)c1C2=O)C[C@@](O)(C(=O)CO)C[C@@H]3O[C@H]1C[C@H](N)[C@H](O)[C@H](C)O1 [doxorubicin-HCl]
